# pIC50: −log10 of the molar value. Read-outs that look alike come from different tables or passages of the source.
# What was measured:
# KRas G12C = KRas G12C (Homo sapiens, UniProt P01116, C118S/C51S/C80L/G12C); assay: KRas G12C Modification Assay (LCMS detection of covalent adduct); assay type: binding; conditions: 5 μM compound, 3 hours
# Description: A 10 μL aliquot of each protein solution was then transferred to a 384 well microtiter plate. Initial compound stocks were generated at fifty times their desired final assay concentration in DMSO.
# Exemplary compounds of Formula (I) were diluted 25-fold into K-Ras Assay Buffer to a final of two times their final concentration. A 10 μL aliquot of each diluted compound solution was then added to each of the protein solutions in the microtiter plate to initiate reaction. […] At each time point, the reactions were quenched with 20 μL of a 25 mM acetic acid solution. […] Once all reactions were quenched, the plates were heat sealed and the samples were injected into a LC/MS system for data acquisition.
# Samples were injected in their liquid phase onto a C-3 reverse phase column to remove assay buffer and prepare the samples for mass spectrometer. The proteins were eluted from the column using an acetonitrile gradient and fed directly into the mass analyzer. Initial raw data analysis took place in Agilent MassHunter software immediately post data acquisition.
# Raw data analysis of the intact protein was exclusively a deconvolution of the multiple charge states of each protein in solution using a maximum entropy deconvolution provided in Mass Hunter. To minimize complexity, only the data over limited mass ranges were considered for analysis, with a minimum of one Dalton mass step intervals. The heights of all masses identified during raw data analysis were exported to be further analyzed in Spotfire® data analysis software.
# Final data analysis was a multistep process in the Spotfire® data analysis software package. Briefly, each protein mass was calculated as a percent of the total signal of that sample, that percentage was then normalized to the percentage of signal of the protein in the absence of reactive compounds. Those normalized signals were reported as normalized percent of control (POC). […] Key: “A”≤25% POC; “B”>25% POC≤50% POC; “C”>50% POC and ND=not determined.
# [1] = tested on: Phospho-ERK in NCI-H358 cells expressing KRas G12C; assay: Cellular inhibition of KRas G12C by Phospho-ERK measurement in NCI-H358 cells; assay type: cell-based; conditions: Homo sapiens, read-out: IC50 (pERK(Thr202/Tyr204) normalized with GAPDH)
# Method in brief: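 After 8–12 h attachment, NCI-H358 cells were treated with compounds for 3 h (0.5% DMSO final), fixed, methanol-permeabilized and immunostained. pERK(Thr202/Tyr204) was read by infrared imaging and normalized to GAPDH as percent of DMSO control. IC50 came from a 4-parameter fit.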
# [2] = NCI-H358 cells, 3 hours compound treatment
Structure (SMILES),"POC (normalized percent of control, KRas G12C modification) (KRas G12C)","pIC50 ([1]; NCI-H358, 3 h)","pIC50 [1, 2]"
"C=CC(=O)N1CCN(c2nc(OC[C@@H]3CCCN3C)nc3c2CCN(c2cccc4ccccc24)C3)C[C@@H]1CC#N [Example 234, 2-((S)-1-acryloyl-4-(2-(((S)-1-methylpyrrolidin-2-yl)methoxy)-7-(naphthalen-1-yl)-5,6,7,8-tetrahydropyrido[3,4-d]pyrimidin-4-yl)piperazin-2-yl)acetonitrile]",C (“C”>50% POC),6.00 to 9.00,–
"C=CC(=O)N1CCN(c2nc(OC[C@@H]3CCCN3C)nc3c2CCN(c2c(C)ccc4[nH]ncc24)C3)CC1 [Example 155, (S)-1-(4-(7-(5-methyl-1H-indazol-4-yl)-2-((1-methylpyrrolidin-2-yl)methoxy)-5,6,7,8-tetrahydropyrido[3,4-d]pyrimidin-4-yl)piperazin-1-yl)prop-2-en-1-one]",C (“C”>50% POC),–,6.00 to 9.00
"C=CC(=O)N1CCN(c2nc(OC[C@@H]3CCCN3CC3CC3)nc3c2CCN(c2cccc4ccccc24)C3)CC1CC#N (stereo partly drawn) [Example 257, 2-(1-acryloyl-4-(2-(((S)-1-(cyclopropylmethyl)pyrrolidin-2-yl)methoxy)-7-(naphthalen-1-yl)-5,6,7,8-tetrahydropyrido[3,4-d]pyrimidin-4-yl)piperazin-2-yl)acetonitrile]",C (“C”>50% POC),–,6.00 to 9.00
"C=CC(=O)N1CCN(c2nc(OC[C@H]3CCCN3C)nc3c2CCN(c2cccc4ccccc24)C3)CC1CC#N (stereo partly drawn) [Example 183, 2-[4-[2-[[(2R)-1-methylpyrrolidin-2-yl]methoxy]-7-(1-naphthyl)-6,8-dihydro-5H-pyrido[3,4-d]pyrimidin-4-yl]-1-prop-2-enoyl-piperazin-2-yl]acetonitrile]",C (“C”>50% POC),6.00 to 9.00,–
"C=CC(=O)N1CCN(c2nc(OCCCN3CCOCC3)nc3c2CCN(c2c(C(F)(F)F)ccc4[nH]ncc24)C3)CC1 [Example 180, 1-[4-[2-(3-morpholinopropoxy)-7-[5-(trifluoromethyl)-1H-indazol-4-yl]-6,8-dihydro-5H-pyrido[3,4-d]pyrimidin-4-yl]piperazin-1-yl]prop-2-en-1-one]",C (“C”>50% POC),–,6.00 to 9.00
"C=CC(=O)N1CCN(c2nc(OC[C@@H]3CCCN3C)nc3c2CCN(c2cccc4ccccc24)C3)CC1CC#N (stereo partly drawn) [Example 147, 2-[4-[2-[[(2S)-1-methylpyrrolidin-2-yl]methoxy]-7-(1-naphthyl)-6,8-dihydro-5H-pyrido[3,4-d]pyrimidin-4-yl]-1-prop-2-enoyl-piperazin-2-yl]acetonitrile]",C (“C”>50% POC),6.00 to 9.00,–
"C=CC(=O)N1CCN(c2nc(OC[C@@H]3C[C@@H](F)CN3C)nc3c2CCN(c2cccc4ccccc24)C3)CC1CC#N (stereo partly drawn) [Example 220, 2-(1-acryloyl-4-(2-(((2S,4R)-4-fluoro-1-methylpyrrolidin-2-yl)methoxy)-7-(naphthalen-1-yl)-5,6,7,8-tetrahydropyrido[3,4-d]pyrimidin-4-yl)piperazin-2-yl)acetonitrile]",C (“C”>50% POC),–,6.00 to 9.00
"C=CC(=O)N1CCN(c2nc(OCCCN3CCOCC3)nc3c2CCN(c2c(C)c(O)cc4ccccc24)C3)CC1 [Example 173, 1-(4-(7-(3-hydroxy-2-methylnaphthalen-1-yl)-2-(3-morpholinopropoxy)-5,6,7,8-tetrahydropyrido[3,4-d]pyrimidin-4-yl)piperazin-1-yl)prop-2-en-1-one]",C (“C”>50% POC),–,–
"C=CC(=O)N1CCN(c2nc(OCCN(C)C)nc3c2CCN(c2cc(O)cc4ccccc24)C3)CC1CCO (centres unmarked) [Example 171, 1-(4-(2-(2-(dimethylamino)ethoxy)-7-(3-hydroxynaphthalen-1-yl)-5,6,7,8-tetrahydropyrido[3,4-d]pyrimidin-4-yl)-2-(2-hydroxyethyl)piperazin-1-yl)prop-2-en-1-one]",C (“C”>50% POC),–,–
"C=CC(=O)N1CCN(c2nc(OCCCN3CCOCC3)nc3c2CCN(c2cc(O)cc4cc(C)[nH]c24)C3)CC1 [Example 167, 1-(4-(7-(5-hydroxy-2-methyl-1H-indol-7-yl)-2-(3-morpholinopropoxy)-5,6,7,8-tetrahydropyrido[3,4-d]pyrimidin-4-yl)piperazin-1-yl)prop-2-en-1-one]",B (“B”>25% POC≤50% POC),–,–
"C=CC(=O)N1CCN(c2nc(OCCCN3CCOCC3)nc3c2CCN(c2c(F)c(O)cc4ccccc24)C3)CC1 [Example 165, 1-[4-[7-(2-fluoro-3-hydroxy-1-naphthyl)-2-(3-morpholinopropoxy)-6,8-dihydro-5H-pyrido[3,4-d]pyrimidin-4-yl]piperazin-1-yl]prop-2-en-1-one]",C (“C”>50% POC),–,–
"C=CC(=O)N1CCN(c2nc(OCCCN3CCOCC3)nc3c2CCN(c2cc(O)cc4cccnc24)C3)CC1 [Example 205, 1-(4-(7-(6-hydroxyquinolin-8-yl)-2-(3-morpholinopropoxy)-5,6,7,8-tetrahydropyrido[3,4-d]pyrimidin-4-yl)piperazin-1-yl)prop-2-en-1-one]",C (“C”>50% POC),–,–
"C=CC(=O)N1CCN(c2nc(OCCCN3C[C@@H](F)[C@@H](F)C3)nc3c2CCN(c2cc(O)cc4ccccc24)C3)CC1 [Example 208, 1-(4-(2-(3-((3R,4S)-3,4-difluoropyrrolidin-1-yl)propoxy)-7-(3-hydroxynaphthalen-1-yl)-5,6,7,8-tetrahydropyrido[3,4-d]pyrimidin-4-yl)piperazin-1-yl)prop-2-en-1-one]",C (“C”>50% POC),–,–
"C=CC(=O)N1CCN(c2nc(OCCCN3CCOCC3)nc3c2CCN(c2cc(O)cc4sc(C)nc24)C3)CC1 [Example 166, 1-[4-[7-(6-hydroxy-2-methyl-1,3-benzothiazol-4-yl)-2-(3-morpholinopropoxy)-6,8-dihydro-5H-pyrido[3,4-d]pyrimidin-4-yl]piperazin-1-yl]prop-2-en-1-one]",B (“B”>25% POC≤50% POC),–,–
"C=CC(=O)N1CCN(c2nc(OCCN3CCC[C@@H](F)C3)nc3c2CCN(c2cc(O)cc4ccccc24)C3)CC1 [Example 207, (R)-1-(4-(2-(2-(3-fluoropiperidin-1-yl)ethoxy)-7-(3-hydroxynaphthalen-1-yl)-5,6,7,8-tetrahydropyrido[3,4-d]pyrimidin-4-yl)piperazin-1-yl)prop-2-en-1-one]",C (“C”>50% POC),–,–
"C=CC(=O)N1CCN(c2nc(OC[C@@H]3CCCN3C)nc3c2CCN(c2c(C(C)C)ccc4[nH]ncc24)C3)CC1 [Example 248, (S)-1-(4-(7-(5-isopropyl-1H-indazol-4-yl)-2-((1-methylpyrrolidin-2-yl)methoxy)-5,6,7,8-tetrahydropyrido[3,4-d]pyrimidin-4-yl)piperazin-1-yl)prop-2-en-1-one]",C (“C”>50% POC),–,–
"C=CC(=O)N1CCN(c2nc(O[C@H](C)CN3CCCC3)nc3c2CCN(c2cc(O)cc4ccccc24)C3)CC1 [Example 120, (R)-1-(4-(7-(3-hydroxynaphthalen-1-yl)-2-((1-(pyrrolidin-1-yl)propan-2-yl)oxy)-5,6,7,8-tetrahydropyrido[3,4-d]pyrimidin-4-yl)piperazin-1-yl)prop-2-en-1-one]",–,–,6.00 to 9.00
"C=CC(=O)N1CCN(c2nc(OC[C@@H]3CCCN3C)nc3c2CCN(c2ccccc2C(C)C)C3)CC1 [Example 158, 1-[4-[7-(2-isopropylphenyl)-2-[[(2S)-1-methylpyrrolidin-2-yl]methoxy]-6,8-dihydro-5H-pyrido[3,4-d]pyrimidin-4-yl]piperazin-1-yl]prop-2-en-1-one]",C (“C”>50% POC),–,–
"C=CC(=O)N1CCN(c2nc(OC[C@@H]3CCCN3C)nc3c2CCN(c2cccc(Cl)c2C(F)(F)F)C3)CC1CC#N (stereo partly drawn) [Example 277, 2-(1-acryloyl-4-(7-(3-chloro-2-(trifluoromethyl)phenyl)-2-(((S)-1-methylpyrrolidin-2-yl)methoxy)-5,6,7,8-tetrahydropyrido[3,4-d]pyrimidin-4-yl)piperazin-2-yl)acetonitrile]",–,–,6.00 to 9.00
